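1) Cells in 96-well plates. 2) Compound, 48 h, 5 concentrations. 3) Linear interpolation between surrounding doses. 4) Unreached endpoint = highest concentration. GI50: concentration for 50% inhibition of growth.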 Activity calls are given as the source filed them. No stated cut-off is given here; in the data, active = GI50 up to about 1.1 µM and inactive = higher. Bounds are passed on as bounds.

Test systems include 786-0; A549; ACHN; BT-549; CAKI-1; DU-145; EKVX; HOP-62; Hs-578T; LOX IMVI; M14; MCF7; MDA-MB-231; MDA-MB-435; NCI-H226; OVCAR-4; SK-MEL-2; SNB-75; UACC-257; SF-295.
What all share (experiment): growth of human tumour cells (NCI), 48 h

In the case of `CCCCCCc1cc2cc(C(=O)NCc3ccccc3)c(=N)oc2cc1O`, the GI50 with 786-0, in the experiment on A549, in the experiment on ACHN, in the experiment with BT-549, in the experiment on CAKI-1 and in the experiment on DU-145 was > 100 µM (inactive) each time. Besides, the GI50 in the experiment with EKVX, in the experiment on HOP-62, in the experiment on Hs-578T, with LOX IMVI, in the experiment on M14 and in the experiment on MCF7 was > 100 µM (inactive) throughout. For the same molecule, the GI50 with MDA-MB-231, in the experiment with MDA-MB-435, with NCI-H226, with OVCAR-4, in the experiment on SK-MEL-2 and in the experiment with SNB-75 was > 100 µM (inactive) throughout. Also, the GI50 in the experiment with UACC-257 was > 100 µM (inactive).

`Cc1c2cc[n+](CCN3CCCCC3)cc2c(C)c2c1[nH]c1ccc(O)cc12`: the GI50 in the experiment on 786-0 was 2.41 µM (inactive); in the experiment with A549 it was 1.35 µM (inactive); in the experiment with ACHN, 5.92 µM (inactive); in the experiment with BT-549, 11.8 µM (inactive); in the experiment with CAKI-1, 5.48 µM (inactive); in the experiment with DU-145, 1.89 µM (inactive). Moreover, the GI50 with EKVX was 3.92 µM (inactive); with HOP-62, 2.32 µM (inactive); with Hs-578T, 2.84 µM (inactive); in the experiment on LOX IMVI, 4.41 µM (inactive); in the experiment on M14 it was 9.27 µM (inactive); with MCF7, 1.76 µM (inactive). In addition, the GI50 is 9.93 µM (inactive) in the experiment with MDA-MB-231; 10.2 µM (inactive) in the experiment on MDA-MB-435; 1.13 µM (inactive) in the experiment on OVCAR-4; 1.47 µM (inactive) in the experiment with SF-295; 11.9 µM (inactive) in the experiment with SK-MEL-2; 0.647 µM (active) in the experiment with SNB-75. Also, the GI50 in the experiment with UACC-257 was 13.7 µM (inactive).

Take `Cn1c(N)c(/C=N/NC(=O)CC#N)c(=O)n(C)c1=O`: the GI50 in the experiment on 786-0, with A549, with ACHN, in the experiment on BT-549, with CAKI-1 and in the experiment with DU-145 was > 100 µM (inactive) in each case. Further, the GI50 in the experiment with EKVX, with HOP-62, with Hs-578T, in the experiment on LOX IMVI, in the experiment with M14 and with MCF7 was > 100 µM (inactive) in each case. Further, the GI50 in the experiment on MDA-MB-231, in the experiment with MDA-MB-435, in the experiment with NCI-H226, in the experiment with OVCAR-4, in the experiment on SF-295 and in the experiment with SK-MEL-2 was > 100 µM (inactive) each time. For the same molecule, the GI50 with SNB-75 and in the experiment on UACC-257 was > 100 µM (inactive) throughout.

As for `O=C(O)c1nc2cc(C(F)(F)F)ccc2[nH]c1=O`, the GI50 with 786-0, with A549, in the experiment on ACHN, in the experiment with BT-549, in the experiment with CAKI-1 and in the experiment with DU-145 was > 100 µM (inactive) in each case. In addition, the GI50 with EKVX, in the experiment with HOP-62, in the experiment on Hs-578T, in the experiment on LOX IMVI, with M14 and in the experiment on MCF7 was > 100 µM (inactive) each time. Moreover, the GI50 in the experiment on MDA-MB-231, in the experiment with MDA-MB-435, in the experiment with NCI-H226, in the experiment with OVCAR-4, in the experiment on SF-295 and in the experiment on SK-MEL-2 was > 100 µM (inactive) throughout. Further, the GI50 with UACC-257 is > 100 µM (inactive).

Regarding `C/C(=N\Nc1ccc([N+](=O)[O-])cc1[N+](=O)[O-])c1ccc2ccccc2n1`, the GI50 is 78.3 µM (inactive) in the experiment on 786-0; 57.5 µM (inactive) in the experiment on A549; 42.8 µM (inactive) in the experiment with ACHN; 53.6 µM (inactive) with BT-549; 58.9 µM (inactive) in the experiment on CAKI-1; > 100 µM (inactive) in the experiment on DU-145. In addition, the GI50 is > 100 µM (inactive) in the experiment with EKVX; 25.3 µM (inactive) in the experiment with Hs-578T; > 100 µM (inactive) in the experiment with M14; 89.9 µM (inactive) in the experiment with MCF7; 49.3 µM (inactive) in the experiment on MDA-MB-231; > 100 µM (inactive) in the experiment with MDA-MB-435. In addition, the GI50 in the experiment on NCI-H226 was 88.1 µM (inactive); with SF-295 it was 52.6 µM (inactive); in the experiment on SK-MEL-2, > 100 µM (inactive); in the experiment with SNB-75 it was 81.1 µM (inactive); in the experiment with UACC-257, > 100 µM (inactive).

In the case of `COc1ccc2[nH]c(CCNC(=O)c3cc([N+](=O)[O-])cc([N+](=O)[O-])c3)cc2c1`, the GI50 in the experiment on 786-0 was 21.2 µM (inactive); in the experiment on A549 it was > 100 µM (inactive); in the experiment with BT-549, > 100 µM (inactive); with CAKI-1, 26.1 µM (inactive); in the experiment on DU-145, > 100 µM (inactive); in the experiment with HOP-62 it was 12.3 µM (inactive). Moreover, the GI50 was 58.9 µM (inactive) with Hs-578T; 64.1 µM (inactive) with LOX IMVI; > 100 µM (inactive) with M14; 69.3 µM (inactive) in the experiment with MCF7; 25.4 µM (inactive) in the experiment on MDA-MB-231; > 100 µM (inactive) in the experiment with MDA-MB-435. Also, the GI50 in the experiment on NCI-H226 is 71.1 µM (inactive); with OVCAR-4, > 100 µM (inactive); in the experiment on SK-MEL-2, 65.8 µM (inactive); with SNB-75, 19.4 µM (inactive); with UACC-257 it was > 100 µM (inactive).

As to `Cc1cc(OCc2nnc3sc(NC(=O)c4ccccc4)nn23)ccc1Cl`, the GI50 was 33.1 µM (inactive) with 786-0; 33.1 µM (inactive) with A549; 20.5 µM (inactive) in the experiment on ACHN; 41.7 µM (inactive) in the experiment with BT-549; 18 µM (inactive) in the experiment on CAKI-1; 24.4 µM (inactive) with DU-145. Besides, the GI50 is 31.1 µM (inactive) in the experiment on EKVX; 20.1 µM (inactive) in the experiment with HOP-62; 32.1 µM (inactive) in the experiment on Hs-578T; 30.1 µM (inactive) in the experiment on LOX IMVI; 27.4 µM (inactive) in the experiment on M14; 30.3 µM (inactive) in the experiment on MCF7. Besides, the GI50 with MDA-MB-231 is 42.4 µM (inactive); in the experiment with MDA-MB-435, 22 µM (inactive); in the experiment on NCI-H226 it was > 100 µM (inactive); with OVCAR-4 it was > 100 µM (inactive); in the experiment with SF-295, 36.6 µM (inactive); in the experiment with SK-MEL-2 it was 28.8 µM (inactive). In addition, the GI50 with UACC-257 was 37.7 µM (inactive).

Regarding `N#Cc1c(N)nc(Sc2ccccc2N)c(C#N)c1-c1ccc(Cl)cc1`, the GI50 is 6.98 µM (inactive) in the experiment with 786-0; 9.4 µM (inactive) in the experiment with A549; 10.7 µM (inactive) with ACHN; 4.21 µM (inactive) with BT-549; 17.9 µM (inactive) in the experiment with CAKI-1; 12.7 µM (inactive) in the experiment on DU-145. Moreover, the GI50 with EKVX was 4.29 µM (inactive); in the experiment with HOP-62 it was 3.7 µM (inactive); with Hs-578T it was 7.26 µM (inactive); in the experiment on LOX IMVI, 4.45 µM (inactive); with M14 it was 10.5 µM (inactive); with MCF7, 7.05 µM (inactive). For the same molecule, the GI50 in the experiment on MDA-MB-231 is 9.77 µM (inactive); with MDA-MB-435 it was 11.7 µM (inactive); with NCI-H226, 37.2 µM (inactive); in the experiment on OVCAR-4, 17.8 µM (inactive); in the experiment on SF-295 it was 6.65 µM (inactive); with SK-MEL-2 it was 5.14 µM (inactive). Further, the GI50 with UACC-257 was 15.9 µM (inactive).

In the case of `C=CCc1c(Cl)nc(Cl)nc1Cl`, the GI50 in the experiment on 786-0 was 0.0918 µM (active); in the experiment on A549, 2.04 µM (inactive); in the experiment on ACHN it was 0.346 µM (active); in the experiment on BT-549 it was 0.0474 µM (active); in the experiment on CAKI-1 it was 0.0176 µM (active); in the experiment on DU-145 it was 2.01 µM (inactive). In addition, the GI50 in the experiment on EKVX was 1.02 µM (active); in the experiment with HOP-62, 0.515 µM (active); in the experiment on Hs-578T, 0.368 µM (active); in the experiment on LOX IMVI, < 0.0115 µM (active); in the experiment with M14, < 0.0156 µM (active); in the experiment with MCF7, 0.185 µM (active). Moreover, the GI50 with MDA-MB-231 is 0.561 µM (active); in the experiment with MDA-MB-435 it was 0.321 µM (active); in the experiment on NCI-H226, 0.0421 µM (active); in the experiment with OVCAR-4, 0.243 µM (active); in the experiment with SF-295, 1.93 µM (inactive); in the experiment with SK-MEL-2, 0.478 µM (active). The GI50 in the experiment with SNB-75 was 1.08 µM (active); with UACC-257, 0.641 µM (active).

As for `O=c1oc2c(ccc3ccccc32)cc1C1=CSC2=NCCN12`, the GI50 in the experiment on 786-0 is 38.7 µM (inactive); with A549 it was 27.1 µM (inactive); in the experiment with ACHN it was 35.2 µM (inactive); with BT-549, 26.2 µM (inactive); with CAKI-1, 75.5 µM (inactive); in the experiment with DU-145, 26.5 µM (inactive). Besides, the GI50 was 25.5 µM (inactive) in the experiment on EKVX; 35.8 µM (inactive) in the experiment on HOP-62; 73.1 µM (inactive) with Hs-578T; 49.7 µM (inactive) with LOX IMVI; 50.2 µM (inactive) with M14; 21.8 µM (inactive) with MCF7. Further, the GI50 in the experiment on MDA-MB-231 is 38.3 µM (inactive); with MDA-MB-435 it was 53.3 µM (inactive); in the experiment with OVCAR-4 it was 44.5 µM (inactive); in the experiment on SF-295, 33 µM (inactive); in the experiment with SK-MEL-2, > 100 µM (inactive); in the experiment with SNB-75, > 100 µM (inactive). The GI50 with UACC-257 is 56.1 µM (inactive).

For the molecule `O=[N+]([O-])c1cccc(-c2ncc3c(n2)-c2ccccc2C3)c1`, the GI50 with 786-0 was 22.9 µM (inactive); in the experiment with A549, > 100 µM (inactive); in the experiment with ACHN it was > 100 µM (inactive); in the experiment on BT-549 it was > 100 µM (inactive); with CAKI-1, 42.7 µM (inactive); in the experiment with DU-145 it was > 100 µM (inactive). Also, the GI50 in the experiment with EKVX was 94.4 µM (inactive); in the experiment with Hs-578T, 32.9 µM (inactive); in the experiment with M14, > 100 µM (inactive); in the experiment on MCF7, > 100 µM (inactive); with MDA-MB-231, 20.5 µM (inactive); in the experiment with MDA-MB-435 it was > 100 µM (inactive). Besides, the GI50 in the experiment with NCI-H226 was > 100 µM (inactive); with OVCAR-4, > 100 µM (inactive); in the experiment with SF-295, 54.3 µM (inactive); with SK-MEL-2, > 100 µM (inactive); with SNB-75, 23.1 µM (inactive); with UACC-257, > 100 µM (inactive).

(Values after ChEMBL document CHEMBL1201862, “PubChem BioAssay data set” (2004).)
